This is an account of results in US9663463B2, “3-azabicyclo[3.1.0]hexane derivative and use thereof for medical purpose” (priority 2013, dated 2017).

The target in one data set is human μ-opioid receptor (Homo sapiens (Human), UniProt P35372). As to the kind of experiment: Antagonist activity test using [35S]-GTPγS bond as index using human μ-opioid receptor-expressing cell membrane. The format is biochemical. The procedure: Cells in which a human μ-opioid receptor had been highly expressed was purchased from ChanTest (Cleveland). The cells were cultured in a carbon dioxide gas culturing apparatus by using a Ham's F12 culture medium (Invitrogen) containing 10% of fetal bovine blood serum, 1% of non-essential amino acids, 0.4 mg/ml of G418, 100 U/ml of penicillin and 100 μg/ml of streptomycin. The cultured cells were suspended by using a 0.25% trypsin 1 mM EDTA solution, the suspension was collected by using phosphate-buffered saline and centrifuged at 4° C. and 1,000 rpm for 10 minute to remove the supernatant, whereby a cell mass was obtained. […] Similar homogenization and centrifugation operations were repeated on the sediment, a homogenized buffer was added again to the obtained sediment, and the resultant was similarly homogenized to give a membrane fraction solution. The obtained membrane fraction solution was dispensed, rapidly frozen and stored under freezing at −70° C. or less until use. Furthermore, the protein concentration of the obtained membrane fraction solution was measured by using a BCA protein Assay Kit (Cat. 23227, Pierce) according to the protocol attached to the kit.
The cell membrane fraction solution in which the human μ-opioid receptor had expressed, which had been stored under freezing, was melted, a GTP assay buffer (100 mM NaCl, 5 mM MgCl2, 1 mM EDTA-containing 50 mM Hepes (pH 7.4)) was added thereto, and the resultant was homogenized repeatedly twice by using a Polytron homogenizer (SMT Multi Disperser PB95) under ice cooling at 12,000 rpm for 20 seconds to give a homogeneous solution, and the homogeneous solution was diluted to 0.036 mg/ml with a GTP assay buffer containing 18.2 μM of GDP (final concentration: […]). The dilution was incubated for 15 minutes or more under ice cooling until the reaction was initiated. […] [^35S]-GTPγS (NEG030X, Perkinelmer) was diluted with a GTP assay buffer so as to be 0.616 nM (final concentration: 0.08 nM). The resultant was diluted with a GTP assay buffer so as to be 200 nM (final concentration: 10 nM) by using [D-Ala^2, N-Me-Phe^4, Gly^5-ol]-enkephalinacetate (DAMGO, Sigma) as a μ-opioid receptor agonist. WGA Coated PVT SPA Beads (RPNQ0001, Perkinelmer) were added so as to be 20 mg/ml with a GTP assay buffer, and the resultant was suspended (final concentration: 1 mg/well). 4 μL/well of a test substance solution, 10 μL/well of a DAMGO solution, 26 μL/well of a [^35S]-GTPγS solution, […] of a suspension liquid of WGA Coated PVT SPA Beads, and 110 μL/well of the membrane fraction solution were added to a 96 well plate (1450-401, Perkinelmer), the top part of the plate was sealed, and a reaction was performed at 30° C. for 60 minutes under stirring with a plate shaker. For each measurement plate, a well to which DMSO had been added instead of the test substance, and a well to which DMSO had been added instead of the test substance and a GTP assay buffer had been added instead of the DAMGO solution were prepared. Furthermore, after the reaction was completed, the reactant was centrifuged at room temperature and 1,000 rpm for 3 minutes, and the radioactivity was measured by a microplate scintillation luminescence counter (Perkinelmer).
The IC50 value of the test substance was calculated by using Graphpad Prism 5.
In general terms: GTPγS resists hydrolysis and so accumulates on activated G proteins.

Another data set in a line: in vitro. The data set is classed as in vitro ADME, mice. The note with it: Crl:CD-1 (ICR), mouse, pH 7.4; murine serum, equilibrium dialysis, 37° C., 5 to 6 hours; read-out: Protein binding rate (converted). The procedure: The protein binding rate was determined by equilibrium dialysis method using the RED Device (8K MWCO, Rapid Equilibrium Dialysis Device, Thermo Scientific). The test substances that had been dissolved in DMSO were added to the serum that was collected from Crl: CD-1 (ICR) mice fasted overnight, so that the final concentration of DMSO became 1% (v/v). The serum to which the test substance had been added was added to the inner side of the dialysis membrane of the RED Device, and PBS (phosphate buffer saline, pH 7.4) containing 0.01% (v/v) Tween 80 was added to the outside in accordance with the method for using the RED Device and incubated at 37° C. for 5 to 6 hours with ellipsoidal shaking at 100 rpm so that the concentration of the unbound test substance in the serum and the concentration of the test substance in the PBS reached equilibrium. After the incubation was completed, the respective solutions were collected and stored under freezing at −60° C. or less as measurement samples. The proteins were removed from the measurement sample by adding acetonitrile in an amount of 5-fold or more of the amount of the internal standard substance and the serum sample, and the supernatants were measured by LC/MS/MS (liquid chromatograph—triple quadrupole mass spectrometer). The serum samples were measured after suitably diluting with distilled water as necessary.
A: the concentration of the test substance in the PBS sample
B: the concentration of the test substance in the serum sample
On the technique in general: In equilibrium dialysis only unbound substance equilibrates across the membrane.

Data set [1] concerns pruritus mice model to which morphine had been intracisternally administered. As to the kind of experiment: Anti-pruritic effect in pruritus mice model to which morphine had been intracisternally administered. The format is in vivo. The note with it: Mus musculus; oral administration, male ICR mice, inhibition of morphine-induced scratching behavior; read-out: ED50. The procedure: As experimental animals, male ICR (Cr1j: CD1 (ICR): Charles River Japan) mice were used at 5 to 6-week old. The mice were placed in an acrylic cage (colorless and transparent, W 13.5 cm×D 9.5 cm×H 40 cm) for observing scratching behavior for 30 minutes or more to thereby allow the mice to get used to the observation environment, and the test substance solutions were forcedly orally administered to the test substance-administered groups. In addition, an administration vehicle was forcedly orally administered to the normal control group and the pathological control group. A necessary amount of the test substance was weighed and formed into a micropowder in an agate mortar, an administration vehicle, a 0.5 w/v % methyl cellulose 400 solution (Wako Pure Chemical Industries Ltd.) was added little by little, and preparation was performed by suspending or dissolving so as to give an intended concentration (from 0.025 to 3 mg/ml). The test doses were preset to suitable doses in the range in which the maximum dose is 30 mg/10 ml/kg.
Based on 30 minutes after the forced oral administration of the test substance as a criterion, the time for the intracisternal administration of morphine was suitably set up to 120 minutes after at the maximum, with consideration for the times of maximum plasma concentration of the respective test substances, in the case when the in vivo pharmacokinetics of the test substance had been confirmed in advance. Furthermore, saline was intracisternally administered to the normal control group, and the above-mentioned morphine solution was intracisternally administered to the pathogenic control group, so as to be 5 μL/site at the same time as that of the test substance group after the forced oral administration of the administration vehicle in either case.
The behavior of each mouse within 60 minutes from the intracisternal administration of the morphine solution or saline was recorded by a digital video camera that was installed immediately above the acrylic cage, the images were stored in a digital video recorder, and the number of frequency of the scratching behavior was measured. The number of frequency of the scratching behavior was measured with deeming a behavior in which the mouse raised its hindlimb, scratched the facial surface and the peripheral sites thereof, and got the hindlimb off from the body within 30 minutes from after the intracisternal administration of the morphine or saline as one time.
The anti-pruritic effect of each test substance was obtained as follows. As an inhibition ratio against the number of frequency of the scratching behavior on the pathological control group, the inhibition ratio (%) of the respective individuals and the average value thereof were calculated from the following formula, and an ED50 value was calculated based on the obtained inhibition ratio. Inhibition ratio of each individual (%)={1−(A−Vehicle)/(Morphine−Vehicle)}×100 Morphine: the average of the scratching number of the pathological control group Vehicle: the average of the scratching number of the normal control group A: the scratching number of each individual in the test substance-administered group

Data set [2] in a line: Plasma concentration of test substance at ED50 value (mice, LC/MS/MS). The format is in vivo. The note with it: at the ED50 value, at time of morphine administration, oral, linear regression from two doses. The procedure:
The concentration of the test substances in blood plasma was confirmed by using mice of the same week-old for the same dose as that used in the evaluation of the anti-pruritic effect. The test substance was administered by forced oral administration of an administration vehicle prepared in a similar manner to that in the evaluation of the anti-pruritic effect under a non-fasting condition. The blood samples were collected from the orbital venous plexus, within from 15 minutes after the administration of the test substance to after 180 minutes at the maximum, for multiple times including the timing at which the morphine solution was intracisternally administered, under inhalation anesthesia with diethyl ether or isoflurane using a heparin-treated hematocrit tubes. The collected blood samples were immediately ice-cooled and centrifuged at 1,800 g for 15 minutes at 4° C., and the plasma fractions were transferred and stored under freezing at −30° C. or less until measurement.
The concentrations of the test substances in plasma were measured using LC/MS/MS. Furthermore, as the measurement samples for LC/MS/MS, the supernatants obtained by adding an internal standard substance and acetonitrile in an amount within a range from 5-fold to 10-fold of the amount of the plasma to the collected plasma samples, and removing proteins therefrom, was used.

The target of the next data set is hERG current (Homo sapiens (Human), UniProt Q12809). As to the kind of experiment: cell-based. An excerpt: A: the suppression rate (%) of the test substance in each cell
B: the average suppression rate (%) of the vehicle control group

pIC50: −log10 of the molar value. Structures can show the parent of a compound that is named as a salt.

Chain of hERG current (Q12809 whole entry): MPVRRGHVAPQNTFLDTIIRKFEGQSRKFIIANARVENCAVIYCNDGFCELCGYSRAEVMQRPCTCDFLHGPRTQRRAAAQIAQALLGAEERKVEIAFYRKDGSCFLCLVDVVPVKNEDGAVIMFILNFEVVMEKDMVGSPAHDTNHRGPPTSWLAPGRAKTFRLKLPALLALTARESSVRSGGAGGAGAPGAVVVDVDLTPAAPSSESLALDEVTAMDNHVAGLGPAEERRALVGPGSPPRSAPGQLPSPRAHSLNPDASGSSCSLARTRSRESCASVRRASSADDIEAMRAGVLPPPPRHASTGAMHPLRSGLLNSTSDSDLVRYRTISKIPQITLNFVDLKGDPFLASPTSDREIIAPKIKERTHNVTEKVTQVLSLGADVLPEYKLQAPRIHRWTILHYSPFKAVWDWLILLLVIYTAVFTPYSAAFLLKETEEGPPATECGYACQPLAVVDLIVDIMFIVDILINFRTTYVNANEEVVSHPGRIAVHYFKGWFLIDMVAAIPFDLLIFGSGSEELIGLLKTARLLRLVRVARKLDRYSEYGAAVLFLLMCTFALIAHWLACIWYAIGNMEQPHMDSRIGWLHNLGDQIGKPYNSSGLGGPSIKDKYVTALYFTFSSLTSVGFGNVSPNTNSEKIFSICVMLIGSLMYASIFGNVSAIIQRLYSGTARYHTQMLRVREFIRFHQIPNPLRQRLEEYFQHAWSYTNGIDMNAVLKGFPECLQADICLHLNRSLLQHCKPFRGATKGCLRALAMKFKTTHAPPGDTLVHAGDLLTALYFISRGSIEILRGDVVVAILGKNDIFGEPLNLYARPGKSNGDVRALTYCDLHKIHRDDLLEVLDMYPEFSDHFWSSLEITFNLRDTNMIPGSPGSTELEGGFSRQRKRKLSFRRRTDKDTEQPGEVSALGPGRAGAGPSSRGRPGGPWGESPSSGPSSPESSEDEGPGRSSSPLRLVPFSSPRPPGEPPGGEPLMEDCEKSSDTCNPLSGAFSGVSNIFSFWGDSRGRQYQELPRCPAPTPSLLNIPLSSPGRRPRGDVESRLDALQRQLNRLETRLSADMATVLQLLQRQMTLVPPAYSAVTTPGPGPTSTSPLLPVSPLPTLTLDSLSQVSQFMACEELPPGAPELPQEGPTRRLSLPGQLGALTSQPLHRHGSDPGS

Usually pIC50 stands for the IC50 on a negative log10 scale, so that one unit is a factor of ten. The low end stands for a high IC50, the high end for a low IC50. `CC[C@]1(c2cccc(NS(=O)(=O)C3CC3)c2)[C@@H]2CN(CC3(O)Cc4ccccc4C3)C[C@@H]21` [Example 1-(b), N-(3-{(1R,5S,6r)-6-ethyl-3-[(2-hydroxy-2,3-dihydro-1H-inden-2-yl)methyl]-3-azabicyclo[3.1.0]hexan-6-yl}phenyl)cyclopropanesulfonamide hydrochloride] showed a pIC50 against human μ-opioid receptor of 8.82.

In the case of `CC[C@]1(c2cc(NS(=O)(=O)C3CC3)ccc2F)[C@@H]2CN(CCCN3CCC(F)(F)C3)C[C@@H]21` [Example 9-(b), N-(3-{(1R,5S,6r)-3-[3-(3,3-difluoropyrrolidin-1-yl)propyl]-6-ethyl-3-azabicyclo[3.1.0]hexan-6-yl}-4-fluorophenyl)cyclopropanesulfonamide hydrochloride], in “in vitro”, the fraction unbound is 0.173. At human μ-opioid receptor, this molecule had a pIC50 of 8.60.

The molecule `CC[C@]1(c2cc(NS(=O)(=O)C3CC3)ccc2F)[C@@H]2CN(CC3(OC)Cc4ccccc4C3)C[C@@H]21` [Example 11-(b), N-(3-{(1R,5S,6r)-6-ethyl-3-[(2-methoxy-2,3-dihydro-1H-inden-2-yl)methyl]-3-azabicyclo[3.1.0]hexan-6-yl}-4-fluorophenyl)cyclopropanesulfonamide hydrochloride] gave a pIC50 against human μ-opioid receptor of 8.55.

For orientation: ED50 means the dose at which the effect has come halfway, by size or by number of responders. For the molecule `CC[C@]1(c2cc(F)cc(NS(=O)(=O)C3CC3)c2)[C@@H]2CN(CC3(OC)Cc4ccccc4C3)C[C@@H]21` [Example 12-(b), N-(3-{(1R,5S,6r)-6-ethyl-3-[(2-methoxy-2,3-dihydro-1H-inden-2-yl)methyl]-3-azabicyclo[3.1.0]hexan-6-yl}-5-fluorophenyl)cyclopropanesulfonamide hydrochloride], in data set [1], the ED50 was 3.2 mg/kg. Also, the fraction unbound in “in vitro” is 0.002. The “Plasma concentration of test substance” value in data set [2] was determined as 193 nM. The molecule also showed a negative-log IC50 (pIC50) at human μ-opioid receptor of 7.92.

For the molecule `CCOC1(CN2C[C@@H]3[C@H](C2)[C@@]3(CC)c2cccc(NS(=O)(=O)C3CC3)c2)Cc2ccccc2C1` [Example 13-(b), N-(3-{(1R,5S,6r)-3-[(2-ethoxy-2,3-dihydro-1H-inden-2-yl)methyl]-6-ethyl-3-azabicyclo[3.1.0]hexan-6-yl}phenyl)cyclopropanesulfonamide hydrochloride], the ED50 in data set [1] was determined as 2.4 mg/kg. The “Plasma concentration of test substance” value in data set [2] is recorded as 71.9 nM. The pIC50 on human μ-opioid receptor was 8.39.

On human μ-opioid receptor, `CCOC1(CCCN2C[C@@H]3[C@H](C2)[C@@]3(CC)c2cccc(NS(=O)(=O)C3CC3)c2)CCC(F)(F)CC1` [Example 14-(b), N-(3-{(1R,5S,6r)-3-[3-(1-ethoxy-4,4-difluorocyclohexyl)propyl]-6-ethyl-3-azabicyclo[3.1.0]hexan-6-yl}phenyl)cyclopropanesulfonamide hydrochloride] had a negative-log IC50 (pIC50) of 8.89.

For the molecule `COC1(CN2C[C@@H]3[C@H](C2)[C@@]3(C)c2cccc(NS(=O)(=O)C3CC3)c2)Cc2ccccc2C1` [Example 18-(b), N-(3-{(1R,5S,6r)-3-[(2-methoxy-2,3-dihydro-1H-inden-2-yl)methyl]-6-methyl-3-azabicyclo[3.1.0]hexan-6-yl}phenyl)cyclopropanesulfonamide hydrochloride], the pIC50 against hERG current is 6.40; at human μ-opioid receptor it was 7.80. The fraction unbound in “in vitro” is 0.007.

`C=C[C@]1(c2cccc(NS(=O)(=O)C3CC3)c2)[C@@H]2CN(CC3(O)Cc4ccccc4C3)C[C@@H]21` [Example 19-(b), N-(3-{(1R,5S,6r)-3-[(2-hydroxy-2,3-dihydro-1H-inden-2-yl)methyl]-6-vinyl-3-azabicyclo[3.1.0]hexan-6-yl}phenyl)cyclopropanesulfonamide hydrochloride]: the fraction unbound in “in vitro” is 0.009. In addition, the pIC50 against human μ-opioid receptor is 8.35.

As for `CC[C@]1(c2cccc(NS(=O)(=O)C3CC3)c2)[C@@H]2CN(CC3(O)Cc4cc(F)c(F)cc4C3)C[C@@H]21` [Example 20-(a), N-(3-{(1R,5S,6r)-3-[(5,6-difluoro-2-hydroxy-2,3-dihydro-1H-inden-2-yl)methyl]-6-ethyl-3-azabicyclo[3.1.0]hexan-6-yl}phenyl)cyclopropanesulfonamide], the fraction unbound in the data set “in vitro” was 0.006. This molecule also had a pIC50 against human μ-opioid receptor of 8.39.
